In patent US7495018B2, “Substituted 1,3-thiazole compounds, their production and use” (Takeda Pharmaceutical Company Limited, priority 2000, dated 2009):

Tested on: TNF-α production in THP-1 cells
Assay: Inhibitory activity of TNF-α production in LPS-stimulated THP-1 cells
Type: cell-based
Conditions: Homo sapiens, LPS 5 μg/mL, 4 hours, TNF-α by ELISA, read-out: IC50 (concentration inhibiting 50% of TNF-α production)
Procedure: Measurement of Inhibitory Activity of TNF-α Production
THP-1 cells cultured in a PRMI 1640 medium (Life Technologies, Inc., USA) containing 1% inactivated fetal bovine serum (Life Technologies, Inc.) and 10 mM HEPES (pH 7.5) were inoculated on a 96 well plate to give 1×10^5 cells/well, then, 1 μL of a sample compound dissolved in DMSO was added. After incubation for 1 hour at 37° C. in a CO2 incubator, LPS (Wako Pure Chemical Industries Ltd.) was added to give a final concentration of 5 μg/mL. After incubation for 4 hours at 37° C. in a CO2 incubator, the supernatant was obtained by centrifugal separation. The TNF-α concentration in the supernatant was measured by ELISA (R&D Systems, Quantikine Kit). The concentration (IC50 value) of a sample compound necessary for inhibiting 50% of TNF-α production was calculated by PRISM 2.01 (GraphPad Software).

In order of rising IC50:
1. CCC(=O)Nc1cc(-c2sc(-c3ccc(S(C)(=O)=O)cc3)nc2-c2cccc(Cl)c2)ccn1 [Example 58-7, N-[4-[4-(3-chlorophenyl)-2-(4-methylsulfonylphenyl)-1,3-thiazol-5-yl]-2-pyridyl]propionamide]  21 nM
2. CCc1nc(-c2cccc(Cl)c2)c(-c2ccnc(NC3CCCCC3)c2)s1 [Example 36-10, 4-[4-(3-chlorophenyl)-2-ethyl-1,3-thiazol-5-yl]-N-cyclohexyl-2-pyridylamine]  55 nM
3. CCc1nc(-c2cccc(Cl)c2)c(-c2ccnc(NC(C)=O)c2)s1 [Example 30-2, N-[4-[4-(3-chlorophenyl)-2-ethyl-1,3-thiazol-5-yl]-2-pyridyl]acetamide]  120 nM

Tested on: not given
Assay: not given
Conditions: not given

First: Cc1cccc(-c2nc(N(C)C)sc2-c2ccnc(C)c2)c1 [Example Compound 10, N,N-dimethyl-[4-(3-methylphenyl)-5-(2-methyl-4-pyridyl)-1,3-thiazol-2-yl]amine]
Second: CCOC(=O)c1nc(-c2cccc(C)c2)c(-c2ccnc(C)c2)s1 [Example Compound 14-12, Ethyl [4-(3-methylphenyl)-5-(2-methyl-4-pyridyl)-1,3-thiazol-2-yl]carboxylate]
The melting point of the first is lower: 77 to 79 °C for the first, 97 to 98 °C for the second.

First: CC(=O)Nc1nc(-c2cc(C)cc(C)c2)c(-c2ccnc(C)c2)s1 [Example Compound 40-1, N-[4-(3,5-dimethylphenyl)-5-(2-methyl-4-pyridyl)-1,3-thiazol-2-yl]acetamide]
Second: CC(=O)Nc1nc(-c2cc(C)cc(C)c2)c(-c2cc(C)nc(C)c2)s1 [Example Compound 40-3, N-[4-(3,5-dimethylphenyl)-5-(2,6-dimethyl-4-pyridyl)-1,3-thiazol-2-yl]acetamide]
The melting point of the first is lower: 236 to 237 °C for the first, 266 to 267 °C for the second.

First: Cc1cccc(-c2nc(NC(=O)NCCCl)sc2-c2ccnc(C)c2)c1
Second: Cc1cccc(-c2nc(NC(=O)NOc3ccccc3)sc2-c2ccnc(C)c2)c1 [Example Compound 64, N-[4-(3-methylphenyl)-5-(2-methyl-4-pyridyl)-1,3-thiazol-2-yl]-N′-phenyloxyurea]
The melting point of the first is lower: 149 to 151 °C for the first, 154 to 155 °C for the second.

Compared with `CCc1nc(-c2cccc(Cl)c2)c(-c2ccnc(F)c2)s1` [Example Compound 12, 2-ethyl-4-(3-chlorophenyl)-5-(2-fluoro-4-pyridyl)-1,3-thiazole], `CCCC(=O)Nc1cc(-c2sc(CC)nc2-c2cccc(Cl)c2)ccn1` [Example 86, N-[4-[4-(3-chlorophenyl)-2-ethyl-1,3-thiazol-5-yl]-2-pyridyl]butyramide] is higher in melting point: 102 to 103 °C for the first, 119 to 120 °C for the second.

Compared with `CCCc1cccc(-c2nc(CC)sc2-c2ccnc(NC(C)=O)c2)c1` [Example 82-9, N-[4-[2-ethyl-4-(3-propylphenyl)-1,3-thiazol-5-yl]-2-pyridyl]acetamide], `CCCCCC(=O)Nc1cc(-c2sc(CC)nc2-c2cccc(C)c2)ccn1` [Example 87-2, N-[4-[2-ethyl-4-(3-methylphenyl)-1,3-thiazol-5-yl]-2-pyridyl]hexanamide] is lower in melting point: 121 to 122 °C for the first, 84 to 85 °C for the second.

First: COc1ccc(C(=O)Nc2nc(-c3cccc(C)c3)c(-c3ccnc(NC4CCCCC4)c3)s2)cn1 [Example Compound 48-1, N-[5-(2-cyclohexylamino-4-pyridyl)-4-(3-methylphenyl)-1,3-thiazol-2-yl]-6-methoxynicotinamide]
Second: Cc1cccc(-c2nc(N(C)C(=O)c3ccc(Cl)nc3)sc2-c2ccnc(NC3CCCCC3)c2)c1 [Example Compound 44-4, 6-chloro-N-[5-(2-cyclohexylamino-4-pyridyl)-4-(3-methylphenyl)-1,3-thiazol-2-yl]-N-methylnicotinamide]
The melting point of the first is higher: 191 to 192 °C for the first, 171 to 172 °C for the second.

Compared with `Cc1cccc(-c2nc(-c3ccc(F)cc3F)sc2-c2ccnc(C)c2)c1` [Example Compound 14-5, 2-(2,4-difluorophenyl)-4-(3-methylphenyl)-5-(2-methyl-4-pyridyl)-1,3-thiazole], `Cc1cccc(-c2nc(-c3ccccc3F)sc2-c2ccnc(C)c2)c1` [Example Compound 14-3, 2-(2-fluorophenyl)-4-(3-methylphenyl)-5-(2-methyl-4-pyridyl)-1,3-thiazole] is lower in melting point: 90 to 91 °C for the first, 73 to 74 °C for the second.

First: CSCCc1nc(-c2cccc(C)c2)c(-c2ccnc(N)c2)s1 [Example 99-1, 4-[4-(3-methylphenyl)-2-[2-(methylthio)ethyl]-1,3-thiazol-5-yl]-2-pyridylamine]
Second: CSCCc1nc(-c2cccc(Cl)c2)c(-c2ccnc(N)c2)s1
The melting point of the first is higher: 98 to 99 °C for the first, 96 to 97 °C for the second.

First: Cc1cc(C)cc(-c2nc(N)sc2-c2cc(C)nc(C)c2)c1 [Example Compound 7-7, [4-(3,5-dimethylphenyl)-5-(2,6-dimethyl-4-pyridyl)-1,3-thiazol-2-yl]amine]
Second: Cc1cc(C)cc(-c2nc(-c3ccc(S(C)(=O)=O)cc3)sc2-c2cc(C)nc(C)c2)c1 [Example Compound 58-3, 4-(3,5-dimethylphenyl)-5-(2,6-dimethyl-4-pyridyl)-2-(4-methylsulfonylphenyl)-1,3-thiazole]
The melting point of the first is higher: 256 to 258 °C for the first, 217 to 220 °C for the second.

First: CC(=O)Nc1cc(-c2scnc2-c2cccc(C)c2)ccn1 [Example 82-11, N-[4-[4-(3-methylphenyl)-1,3-thiazol-5-yl]-2-pyridyl]acetamide]
Second: CC(=O)Nc1cc(-c2sc(C(C)O)nc2-c2cccc(Cl)c2)ccn1 (stereo not shown) [Example 111-2, N-[4-[4-(3-chlorophenyl)-2-(1-hydroxyethyl)-1,3-thiazol-5-yl]-2-pyridyl]acetamide]
The melting point of the first is higher: 149 to 150 °C for the first, 142 to 145 °C for the second.

First: Cc1cccc(-c2nc(-c3ccccc3)sc2-c2ccnc(C)c2)c1 [Example Compound 14-6, 4-(3-methylphenyl)-5-(2-methyl-4-pyridyl)-2-phenyl-1,3-thiazole]
Second: CSc1ccc(-c2nc(-c3cc(C)cc(C)c3)c(-c3ccnc(C)c3)s2)cc1 [Example Compound 16-2, 4-(3,5-dimethylphenyl)-5-(2-methyl-4-pyridyl)-2-[4-(methylthio)phenyl]-1,3-thiazole]
The melting point of the first is lower: 79 to 80 °C for the first, 123 to 125 °C for the second.

Compared with `Cc1cccc(-c2nc(N)sc2-c2ccnc(NC3CCCC3)c2)c1` [Example Compound 34-3, [5-(2-cyclopentylamino-4-pyridyl)-4-(3-methylphenyl)-1,3-thiazol-2-yl]amine], `CCC(=O)Nc1cc(-c2sc(C3CCNCC3)nc2-c2cccc(Cl)c2)ccn1.Cl.Cl` is higher in melting point: 169 to 170 °C for the first, 202 to 203 °C for the second.

Compared with `CSc1ccc(-c2nc(-c3cccc(C)c3)c(-c3cc(C)nc(C)c3)s2)cc1` [Example Compound 16-3, 5-(2,6-dimethyl-4-pyridyl)-4-(3-methylphenyl)-2-[4-(methylthio)phenyl]-1,3-thiazole], `CC(=O)Nc1nc(-c2cccc(C)c2)c(-c2cc(C)nc(C)c2)s1` [Example Compound 40-2, N-[5-(2,6-dimethyl-4-pyridyl)-4-(3-methylphenyl)-1,3-thiazol-2-yl]acetamide] is higher in melting point: 112 to 114 °C for the first, 185 to 187 °C for the second.

Compared with `CCc1nc(-c2ccc(F)c(C)c2)c(-c2ccnc(N)c2)s1` [Example Compound 20-9, 4-[2-ethyl-4-(4-fluoro-3-methylphenyl)-1,3-thiazol-5-yl]-2-pyridylamine], `CCC(=O)Nc1cc(-c2sc(CC)nc2-c2ccc(F)c(C)c2)ccn1` [Example 84-4, N-[4-[2-ethyl-4-(4-fluoro-3-methylphenyl)-1,3-thiazol-5-yl]-2-pyridyl]propionamide] is lower in melting point: 134 to 135 °C for the first, 105 to 107 °C for the second.

First: CC(=O)Nc1cc(-c2sc(-c3ccc(S(C)(=O)=O)cc3)nc2-c2cccc(Cl)c2)ccn1 [Example Compound 58-6, N-[4-[4-(3-chlorophenyl)-2-(4-methylsulfonylphenyl)-1,3-thiazol-5-yl]-2-pyridyl]acetamide]
Second: CC(=O)Nc1cc(-c2sc(-c3ccc(S(C)(=O)=O)cc3)nc2-c2cccc(C)c2)ccn1 [Example 98-1, N-[4-[4-(3-methylphenyl)-2-(4-methylsulfonylphenyl)-1,3-thiazol-5-yl]-2-pyridyl]acetamide]
The melting point of the first is lower: 216 to 217 °C for the first, 222 to 223 °C for the second.

For `COc1ccc(C(=O)Nc2nc(-c3cc(C)cc(C)c3)c(-c3ccnc(C)c3)s2)cn1` [Example Compound 48-3, N-[4-(3,5-dimethylphenyl)-5-(2-methyl-4-pyridyl)-1,3-thiazol-2-yl]-6-methoxynicotinamide], the melting point was 242 to 244 °C.
